In patent publication US20040210959A1, “A Novel Method for Production of Transformed Dihaploid Corn Plants” (MONSANTO TECHNOLOGY LLC, priority 2003, published 2004):

Legend:
[1] = test system: corn line D haploid callus; assay: Chromosome doubling of haploid callus with colchicine; ploidy of regenerated plants by flow cytometry; assay type: cell-based; details: 3 days; for Diploid plants / Haploid plants / Tetraploid plants: 0.025% colchicine
Source text: When a sufficient amount of transgenic callus has grown (approximately 0.25 g), the haploid callus can be doubled to produce dihaploid callus. The callus can be transferred to a 100×20 mm petri plate that contains a structure for supporting callus in a liquid medium such as three filter papers or 2 pieces of 100% acrylic felt. Those of skill in the art are aware of the numerous modifications to liquid media for supporting cultured tissues. To the Petri dish can be added a suitable culture medium lacking selection agents but containing 0.025% colchicine or other chromosome doubling agents such as Oryzalin, pronamide, or APM (amiprophos-methyl) as known to one of skill in the art (i.e., Wan et al., Theor. Appl. Genet., 81: 205-211, 1991). Enough medium and chromosome doubling agent is added to the Petri dish to keep the callus support moist, but not so much that it covers the callus. The callus is then incubated at 28° C. for 3 days in the dark.
After the co-cultivation, the callus pieces were transferred onto two pieces of 2cm^2×1 mm thick 100% acrylic felt with approximately 25 mL liquid MSW57 (Table 3) supplemented with 750 mg/L carbenicillin and 100 mg/L paromomycin in petri dishes (100 mm×25 mm) with 16 calli per plate. The plates were kept in a dark culture room at 28° C. for approximately 7-10 days after which the old medium was removed by aspiration and fresh selection medium was added to the plates. After two 10-day selection periods, the old medium was removed by aspiration and replaced with fresh MSW57 medium containing 0.025% colchicine. The tissues remained on the colchicine medium for 3 days after which the colchicine medium was removed by aspiration and replaced with fresh selection medium containing 750 mg/L carbenicillin and 100 mg/L paromomycin.
After an additional two 10-day selection periods on selection medium, the cultures were moved to a culture room with 16-h light/8-h dark photoperiod at 28° C. and the liquid medium was replaced with liquid MS-6BA medium (Table 3) with 100 mg/L paromomycin and 500 mg/L carbenicillin. After 7 days, the callus pieces were transferred onto the second regeneration medium, a hormone-free MS-based medium (MSOD, Table 3) with 100 mg/L paromomycin in petri dishes (100 mm×25 mm). In another 2 weeks, the callus pieces that had shoots regenerated or were still alive were transferred onto the same hormone-free medium in Phytatrays for further growth. Regenerated plants (R0) when they reached to the top of Phytatrays and had one or more healthy roots were moved to soil in peat pots in a growth chamber. In 7 to 10 days, they were transplanted into 12-in pots after determining by flow cytometry that they were doubled haploids. Using this procedure, 23 transgenic events were produced from a total of 528 pieces of callus exposed to Agrobacterium and selection on paromomycin (Table 6).

[2] = test system: immature embryos and callus from inbred X KHI/pehA crosses; assay: Negative selection of pehA-containing immature embryos/callus on callus induction medium with glyceryl glyphosate; assay type: cell-based, corn; details: 10 to 14 days on callus induction medium; glyceryl glyphosate 0 to 5 mM
Source text: An efficient identification of corn haploid immature embryos, and callus derived from them, can be achieved by using the negative selectable marker gene pehA (phosphonate monoesterase). Cells that express the pehA gene convert the non-toxic glycerol glyphosate to toxic glyphosate and subsequently die. It is understood, however, that other negative selectable marker genes such as cytosine deaminase (which converts 5-fluorocytosine to 5-fluorouracil, which is toxic to cell growth [Plant Cell Reports 2001; 20:738-743]) may also be used equally effectively.
Inbred lines selected for the production of haploid immature embryos or callus can be pollinated with KHI that has been transformed with, and is homozygous for, the selectable marker gene pehA. After culturing on media containing glyceryl glyphosate, diploid (pehA containing) explants fail to grow, whereas maternal haploid explants produce callus typical of the maternal inbred.
Inbred lines selected for the production of haploid immature embryos or callus were pollinated with KHI that had been transformed with, and was homozygous for, the selectable marker gene pehA. The resulting ears were harvested when their embryos were 1.25 to 2.25 mm in size. Immature embryos were plated on suitable culture media to induce the desired type of callus. […]

| SMILES | doubling chromosomes of haploid callus ([1]; corn line D haploid callus, MSW57 medium with 0.025% colchicine) | Diploid plants ([1]; haploid callus line S33-B2) | Haploid plants ([1]; haploid callus line S33-B2) | Diploid plants ([1]; haploid callus line S41-A1) | Haploid plants ([1]; haploid callus line S41-A1) | Diploid plants ([1]; haploid callus line S42-B4) | Haploid plants ([1]; haploid callus line S42-B4) | Tetraploid plants ([1]; haploid callus line S42-B4) | Diploid plants ([1]; haploid callus line S43-B1) | Haploid plants ([1]; haploid callus line S43-B1) | Tetraploid plants ([1]; haploid callus line S43-B1) | Diploid plants ([1]; haploid callus line S49-B1) | Haploid plants ([1]; haploid callus line S55-B1) | Tetraploid plants ([1]; haploid callus line S55-B1) | growth of diploid (pehA containing) immature embryos [2] | growth of maternal haploid immature embryos [2] |
| --- | --- | --- | --- | --- | --- | --- | --- | --- | --- | --- | --- | --- | --- | --- | --- | --- |
| COc1cc2c(c(OC)c1OC)-c1ccc(OC)c(=O)cc1[C@@H](NC(C)=O)CC2 [colchicine] | effective in doubling chromosomes | 67% | 33% | 50% | 50% | 33% | 33% | 33% | 50% | 17% | 33% | 100% | 33% | 67% | – | – |
| O=C(O)CNCP(=O)(O)OCC(O)CO (stereo not shown) [glyceryl glyphosate] | – | – | – | – | – | – | – | – | – | – | – | – | – | – | failed to grow | produced callus typical of maternal inbred |
